The record followed here is patent US20070299092A1 (Wyeth, priority 2004, published 2007).

Values joined by “and” are separate entries in the source; they are usually repeats but may differ in a detail not shown here. Identical values can stand only once. Like-named read-outs stand apart in the source and are kept apart here.

Series [1] deals with T1, human KDR (VEGF-receptor-2) (Homo sapiens, UniProt P35968).
T1 construct: beginning at Met-806; (5′-ATG GAT CCA GAT GM CTC CCA TTG) and ending at Val-1356; made in house
T1 sequence (P35968 806-1356): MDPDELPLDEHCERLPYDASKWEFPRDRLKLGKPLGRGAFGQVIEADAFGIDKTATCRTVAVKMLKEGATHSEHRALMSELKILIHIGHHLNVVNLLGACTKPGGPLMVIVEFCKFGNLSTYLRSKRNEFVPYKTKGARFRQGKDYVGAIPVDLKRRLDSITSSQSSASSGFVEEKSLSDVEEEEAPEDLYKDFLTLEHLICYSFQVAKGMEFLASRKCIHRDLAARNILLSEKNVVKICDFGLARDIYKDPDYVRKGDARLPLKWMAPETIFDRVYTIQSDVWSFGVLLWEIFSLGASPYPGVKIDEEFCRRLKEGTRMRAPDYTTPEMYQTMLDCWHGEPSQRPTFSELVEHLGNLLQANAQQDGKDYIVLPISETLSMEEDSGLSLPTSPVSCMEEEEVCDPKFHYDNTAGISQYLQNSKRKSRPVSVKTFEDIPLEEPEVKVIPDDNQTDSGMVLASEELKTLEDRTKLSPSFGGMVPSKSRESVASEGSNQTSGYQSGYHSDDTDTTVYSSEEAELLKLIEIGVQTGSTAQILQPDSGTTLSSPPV
The experiment in a line: KDR kinase enzyme assay (DELFIA, KDR-IC-Flag, poly(Glu4-Tyr) peptide). It counts as biochemical. Particulars: for inhibition at 0.1 µM: Concentration 100 nM; for inhibition at 0.1 µM / inhibition at 1 µM: read-out: % Inhibition; for inhibition at 1 µM: Concentration 1000 nM.

The target of series [2] is T1, human KDR (VEGF-receptor-2). The series is described as follows: KDR kinase enzyme assay wash-out experiments (irreversible inhibition). It counts as biochemical. Here is the method:
To determine if compounds bound irreversibly to enzyme, plates were washed after the enzyme plus compound pre-incubation step and prior to the addition of ATP. Parallel plates were tested wherein one plate was processed exactly as above while a second plate was washed three times in 100 μl of 4 mM HEPES, pH 7.4, to remove unbound compound. 1× Kinase buffer (30 μl of 1 mM MnCl2, 4 mM HEPES, pH 7.4, 20 μM Na3VO4) and 20 μl of ATP/MgCl2 were added to the wash-out plate. Detection of phosphotyrosinylated peptide for both plates was performed as described above.
For each inhibitor shown in Table 2, two IC50 determinations are shown, one under normal conditions and the other where an intermediate wash-out step is carried out. […] If there was a large increase in the IC50 value in the wash-out experiment compared to the experiment where there was no wash-out, then it was determined that the compound was behaving as a conventional reversible binding inhibitor.

In series [3] the test system is Human umbilical vein endothelial cells (HUVEC). The series is described as follows: HUVEC proliferation assay, VEGF-dependent growth ([3H]-thymidine incorporation). It is filed as cell-based. To be noted: for inhibition at 10 µM / inhibition at 0.1 µM / inhibition at 1 µM: Homo sapiens, HUVEC; for inhibition at 0.1 µM: conc. 100 nM; for inhibition at 1 µM: conc. 1000 nM. As to the method:
Cells were plated into 96-well dishes (4000 cells per well) and allowed to attach overnight. HUVEC were rinsed one time with 100 μl of EBMc-V (EBM supplemented with all above components except serum or VEGF), then 50 ul of EBMc-V was added to cells. Compounds were prepared at 200× stocks in DMSO, diluted into EBMc-V media as 4× stocks, then 50 ul added to appropriate wells. Finally, 100 μl of 2×VEGF (100 ng/ml prepared in EBMc-V; final 50 ng/ml VEGF) was added to all VEGF-treated wells. EBMc-V (no VEGF) was added to negative control wells. Parallel compound-treated plates were prepared except that 100 μl of EGM2 media containing 2% serum but lacking VEGF (EGMc-V) was added. Cells were incubated for 4-5 days at 37° C.
DNA synthesis was assessed by thymidine incorporation. Cells were incubated for 5 hours in 1 μCi of [^3H]-thymidine (PerkinElmer) by addition of 10 ul of 0.1 μCi/ul thymidine prepared in PBS to each well. After incubation, media was aspirated and the cells trypsinized and collected onto a mat using a vacuum-based Micro Cell Harvester (Skatron). [^3H]-thymidine was counted in a liquid scintillation counter. Compounds evaluated for ability to inhibit VEGF-dependent growth of human umbilical vein endothelial cells (HUVEC).

For series [4], the system named is Human colon carcinoma DLD-1. The experiment in a line: Growth of human tumor xenografts in the nude mouse model. Particulars: for % T/C Day 7 / % T/C Day 14 / % T/C Day 21 / Relative tumor growth Day 7 / Relative tumor growth Day 14 / Relative tumor growth Day 21: DLD1, nude mouse.
Experimental: Human colon carcinoma DLD-1 cells (American Type Culture Collection, Rockville, Md.) were grown in tissue culture in DMEM (Gibco/BRL, Gaithersburg, Md.) supplemented with 10% FBS (Gemini Bio-Products Inc., Calabasas, Calif.). Athymic nu/nu female mice (Charles River, Wilmington, Mass.) were injected subcutaneously (SC) in the flank area with 6×10^6 DLD-1 cells. When tumors attained a mass of between 75 and 100 mg, the mice were randomly assigned into treatment groups with 5 animals per group. Animals were treated orally (PO) once daily on days 1 through 20 post staging (day zero) with a dose range (50 to 100 mg/kg/dose) of compound prepared in 0.5% Methocel/0.5% Tween 80 or 0.5% Methocel/0.4% Tween 80 as the vehicle control. Tumor mass was determined every 7 days [(length×width^2)/2] for 21 days post-staging. Relative tumor growth (mean tumor mass on days 7, 14 and 21 divided by the mean tumor mass on day zero) was determined for each treatment group.
Series [5] concerns the target KDR (Homo sapiens, UniProt P35968). The series is described as follows: cell-based. Particulars: for inhibition at 1 µM: read-out: % Inhibition of KDR kinase autophosphorylation in KDR15 cells, compound conc. 1000 nM; for IC50: IC50 (nM), inhibition of KDR kinase autophosphorylation in KDR15 cells, KDR15 cells, VEGF 50 ng/ml, phospho-KDR-Y996 immunoblot. In general terms: A western blot detects proteins with antibodies after separation by electrophoresis.

[6] abbreviates: 50 mg/kg/dose PO, days 1 through 20.
[7] abbreviates: 100 mg/kg/dose PO, days 1 through 20.
[8] abbreviates: Table 6, dose not given, administered on days 1 through 20.

In general, melting point refers to the temperature of the solid-liquid transition. The term IC50 denotes the concentration needed to halve the response being measured. Broadly, the inhibition is the drop in the measured response relative to a control, in per cent.

Chain of KDR (P35968 20-1356): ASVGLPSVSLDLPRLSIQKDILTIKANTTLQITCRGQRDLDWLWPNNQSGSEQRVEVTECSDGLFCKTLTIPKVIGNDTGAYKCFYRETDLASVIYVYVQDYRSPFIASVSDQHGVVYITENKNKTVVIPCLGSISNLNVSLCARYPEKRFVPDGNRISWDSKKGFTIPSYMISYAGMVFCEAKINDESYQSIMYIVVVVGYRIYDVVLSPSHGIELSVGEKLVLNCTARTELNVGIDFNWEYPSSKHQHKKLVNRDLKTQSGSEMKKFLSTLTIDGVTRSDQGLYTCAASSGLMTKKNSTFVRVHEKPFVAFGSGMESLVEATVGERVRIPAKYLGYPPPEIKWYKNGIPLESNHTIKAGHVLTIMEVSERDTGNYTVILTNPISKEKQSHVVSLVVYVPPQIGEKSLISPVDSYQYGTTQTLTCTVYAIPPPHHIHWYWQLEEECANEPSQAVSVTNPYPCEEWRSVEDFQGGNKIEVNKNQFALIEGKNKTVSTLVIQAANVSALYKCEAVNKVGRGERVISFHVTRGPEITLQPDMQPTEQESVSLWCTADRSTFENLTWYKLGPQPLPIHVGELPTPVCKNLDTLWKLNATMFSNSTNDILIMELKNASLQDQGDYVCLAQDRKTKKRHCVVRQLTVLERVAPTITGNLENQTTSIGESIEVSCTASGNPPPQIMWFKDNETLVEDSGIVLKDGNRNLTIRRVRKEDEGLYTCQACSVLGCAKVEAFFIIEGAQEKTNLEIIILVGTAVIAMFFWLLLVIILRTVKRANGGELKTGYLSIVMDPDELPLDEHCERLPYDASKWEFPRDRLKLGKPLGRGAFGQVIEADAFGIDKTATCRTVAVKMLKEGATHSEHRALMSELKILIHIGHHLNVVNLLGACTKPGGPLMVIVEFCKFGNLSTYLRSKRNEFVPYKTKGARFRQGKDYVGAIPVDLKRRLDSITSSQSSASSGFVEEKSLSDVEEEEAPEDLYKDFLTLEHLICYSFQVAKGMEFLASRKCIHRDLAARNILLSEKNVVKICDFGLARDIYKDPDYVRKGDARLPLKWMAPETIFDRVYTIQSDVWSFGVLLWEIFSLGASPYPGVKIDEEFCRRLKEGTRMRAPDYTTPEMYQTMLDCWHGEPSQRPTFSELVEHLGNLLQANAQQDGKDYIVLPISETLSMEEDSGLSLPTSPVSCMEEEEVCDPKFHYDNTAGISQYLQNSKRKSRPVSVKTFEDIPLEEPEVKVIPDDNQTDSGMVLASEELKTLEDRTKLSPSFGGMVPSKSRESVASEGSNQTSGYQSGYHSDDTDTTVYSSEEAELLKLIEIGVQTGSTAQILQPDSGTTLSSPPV

`COCCOc1cc2ncnc(NC3=CC(=O)C(Oc4ccccc4)=CC3=O)c2cc1OC` showed a melting point of 177 to 180 °C.
`COCCOC1=CC(=O)C(Nc2ncnc3cc(OCCOC)c(OC)cc23)=CC1=O` had a melting point of 211 to 212 °C.
As for `COCCOc1cc2ncnc(NC3=CC(=O)C(Sc4nccs4)=C(OC)C3=O)c2cc1OC` [Example 20], the results for the concentration for half-maximal inhibition (IC50) in series [1] (ATP conc. 10 μM), in series [2] (no wash) and in series [2] (wash out) were 17.9 nM, 17.9 nM and 33.1 nM, respectively. Besides, the inhibition at 0.1 µM in series [1] (ATP conc. 10 μM) was found to be 92%. The inhibition at 1 µM was 90% in series [1] (ATP conc. 10 μM) and 97% in series [1] (ATP conc. 1000 μM).
Consider `COCCOc1cc2ncnc(NC3=CC(=O)C(Oc4ccc(-n5ccnc5)cc4)=CC3=O)c2cc1OC` [Example 26, 2-[4-(1H-imidazol-1-yl)phenoxy]-5-{[6-methoxy-7-(2-methoxyethoxy)quinazolin-4-yl]amino}benzo-1,4-quinone], for which, in series [3] (conc. 10000 nM), the inhibition at 10 µM was found to be 89%; the “% Inhibition of VEGF-dependent growth of HUVEC” value was 96% and 99% and 95% and 87% and 91%. In addition, in series [4] (setting [6]), the “S/T = # of Survivors/# of Treated on Day +21 post tumor staging” value is given as 5/5, the “% T/C Day 7” value came out at 84%, the “% T/C Day 14” value was determined as 62% and the “% T/C Day 21” value is 61%. In series [4] (setting [6]), the “Relative tumor growth Day 7” value was found to be 4.21, the “Relative tumor growth Day 14” value is given as 6.93 and the “Relative tumor growth Day 21” value was 10.50. In series [4] (setting [7]), the “S/T = # of Survivors/# of Treated on Day +21 post tumor staging” value is on record as 5/5, the “% T/C Day 7” value came to 67%, the “% T/C Day 14” value was 55% and the “% T/C Day 21” value is recorded as 51%. Besides, in series [4] (setting [7]), the “Relative tumor growth Day 7” value worked out at 3.36, the “Relative tumor growth Day 14” value amounted to 6.10 and the “Relative tumor growth Day 21” value amounted to 8.80.
As to `COCCOc1cc2ncnc(NC3=CC(=O)C(Oc4ccc(C(=O)c5ccccc5)cc4)=CC3=O)c2cc1OC` [Example 39, 2-(4-benzoylphenoxy)-5-{[6-methoxy-7-(2-methoxyethoxy)quinazolin-4-yl]amino}benzo-1,4-quinone], the inhibition at 1 µM in series [5] is 140%. In series [1] (ATP conc. 10 μM), the concentration for half-maximal inhibition (IC50) is 3.5 nM, the inhibition at 0.1 µM was found to be 91% and the inhibition at 1 µM turned out to be 94%. For the same molecule, in series [3], the inhibition at 0.1 µM is 18% and the inhibition at 1 µM worked out at 58%. Besides, in series [3] (conc. 10000 nM), the inhibition at 10 µM worked out at 99%.
`COCCOc1cc2ncnc(NC3=CC(=O)C(Oc4ccc5c(c4)[nH]c4ccccc45)=CC3=O)c2cc1OC` [Example 41, 2-(9H-carbazol-2-yloxy)-5-{[6-methoxy-7-(2-methoxyethoxy)quinazolin-4-yl]amino}benzo-1,4-quinone]: the inhibition at 1 µM in series [5] was found to be 120%. For the same molecule, in series [1] (ATP conc. 10 μM), the half-maximal inhibitory concentration (IC50) is 2 nM, the inhibition at 0.1 µM worked out at 92% and the inhibition at 1 µM was 92%. Besides, in series [3], the inhibition at 0.1 µM was -5% and the inhibition at 1 µM was found to be 42%. In addition, the inhibition at 10 µM in series [3] (conc. 10000 nM) came to 98%.
Turning to `COCCOc1cc2ncc(C#N)c(NC3=CC(=O)C(Oc4ccc(-n5ccnc5)cc4)=CC3=O)c2cc1OC` [Example 72, 4-({4-[4-(1H-imidazol-1-yl)phenoxy]-3,6-dioxocyclohexa-1,4-dien-1-yl}amino)-6-methoxy-7-(2-methoxyethoxy)quinoline-3-carbonitrile], the IC50 in series [1] (ATP conc. 10 μM) was 53.7 nM and 72.4 nM; in series [2] (no wash), 53.7 nM; in series [2] (wash out) it was 73.7 nM. In series [1] (ATP conc. 10 μM), the inhibition at 0.1 µM worked out at 73%. In addition, the results for the inhibition at 1 µM in series [1] (ATP conc. 10 μM) and in series [1] (ATP conc. 1000 μM) were 93% and 94%, respectively.
Consider `COc1cc2ncnc(NC3=CC(=O)C(N(C)c4ccccc4)=CC3=O)c2cc1OC` [Example 85, 2-[(6,7-dimethoxyquinazolin-4-yl)amino]-5-[methyl(phenyl)amino]benzo-1,4-quinone], for which the melting point is 204 to 206 °C. Further, in series [1] (ATP conc. 10 μM), the inhibition at 0.1 µM was determined as 20% and the inhibition at 1 µM was determined as 62%. Besides, in series [1] (ATP conc. 1000 μM), the inhibition at 1 µM turned out to be 64%.
Take `COc1cc2ncnc(NC3=CC(=O)C(N4CCCCC4)=CC3=O)c2cc1OC` [Example 87, 2-[(6,7-dimethoxyquinazolin-4-yl)amino]-5-piperidin-1-ylbenzo-1,4-quinone]: the melting point fell in the range of 226 to 227 °C. Further, in series [1] (ATP conc. 10 μM), the inhibition at 0.1 µM worked out at 19% and the inhibition at 1 µM was determined as 72%. The inhibition at 1 µM in series [1] (ATP conc. 1000 μM) is 85%.
`COc1cc2ncnc(NC3=CC(=O)C4(c5ccccc5)OC4C3=O)c2cc1OC` (stereo not drawn) [Example 100, 4-[(6,7-dimethoxyquinazolin-4-yl)amino]-1-phenyl-7-oxabicyclo[4.1.0]hept-3-ene-2,5-dione] came in with a melting point of 252 to 253 °C.
Still for that read-out and setting: next, `COc1cc2ncnc(NC3=CC(=O)C4(C(C)C)OC4C3=O)c2cc1OC` (stereo not drawn) [Example 107, 4-[(6,7-dimethoxy-4-quinazolinyl)amino]-1-isopropyl-7-oxabicyclo[4.1.0]hept-3-ene-2,5-dione]: 188 to 190 °C.
Turning to `COCCOc1cc2ncnc(NC3=CC(=O)C(N4CCCC4C(F)(F)F)=CC3=O)c2cc1OC` (stereo not drawn) [Example 150, 2-{[6-methoxy-7-(2-methoxyethoxy)quinazolin-4-yl]amino}-5-[2-(trifluoromethyl)pyrrolidin-1-yl]benzo-1,4-quinone], in series [4] (setting [8]), the “% T/C Day 7” value stood at 63%, the “% T/C Day 14” value was found to be 82%, the “% T/C Day 21” value is listed as 88% and the “Relative tumor growth Day 7” value is recorded as 1.62. For the same molecule, in series [4] (setting [8]), the “Relative tumor growth Day 14” value is given as 6.45 and the “Relative tumor growth Day 21” value amounted to 12.54.
With `COCCOc1cc2ncnc(NC3=C(SC)C(=O)C(Cl)=C(OC)C3=O)c2cc1OC` [Example 190, 2-chloro-3-methoxy-5-{[6-methoxy-7-(2-methoxyethoxy)quinazolin-4-yl]amino}-6-(methylthio)benzo-1,4-quinone], in series [4] (setting [8]), the “% T/C Day 7” value is recorded as 61%, the “% T/C Day 14” value is reported as 94%, the “% T/C Day 21” value is on record as 76% and the “Relative tumor growth Day 7” value was 1.58. Also, in series [4] (setting [8]), the “Relative tumor growth Day 14” value is listed as 7.41 and the “Relative tumor growth Day 21” value worked out at 10.74.
On to `COCCOc1cc2ncnc(NC3=CC(=O)C(OCC4CC4)=CC3=O)c2cc1OC` [Example 213, 2-(cyclopropylmethoxy)-5-{[6-methoxy-7-(2-methoxyethoxy)quinazolin-4-yl]amino}benzo-1,4-quinone], for which the IC50 in series [5] was 236 to 400 nM; in series [2] (no wash), 4.7 nM; in series [2] (wash out), 16.9 nM.
For the molecule `COCCOc1cc2ncnc(NC3=CC(=O)C(OCCN(C)c4ccccc4)=CC3=O)c2cc1OC` [Example 222, 2-{[6-methoxy-7-(2-methoxyethoxy)quinazolin-4-yl]amino}-5-{2-[methyl(phenyl)amino]ethoxy}benzo-1,4-quinone], the concentration for half-maximal inhibition (IC50) in series [5] is 175 to 210 nM; in series [2] (no wash), 78.6 nM; in series [2] (wash out), 128 nM.
Take `COCCOc1cc2ncnc(NC3=CC(=O)C(Br)=CC3=O)c2cc1OC` [Example 231, 2-bromo-5-{[6-methoxy-7-(2-methoxyethoxy)quinazolin-4-yl]amino}benzo-1,4-quinone]: the melting point was 200 to 210 °C.
`COCCOc1cc2ncnc(NC3=CC(=O)C(Oc4ccc(-n5ccnc5)cc4)=CC3=O)c2cc1OCCOC` [Example 341, 2-{[6,7-bis(2-methoxyethoxy)quinazolin-4-yl]amino}-5-[4-(1H-imidazol-1-yl)phenoxy]benzo-1,4-quinone] came in with a melting point of 109 to 115 °C.
On to `COc1cc2c(NC3=CC(=O)C(Cl)=CC3=O)ncnc2cc1OCC1CCCCO1` (stereo not drawn) [Example 345, 2-chloro-5-{[6-methoxy-7-(tetrahydro-2H-pyran-2-ylmethoxy)quinazolin-4-yl]amino}benzo-1,4-quinone], for which the melting point is 215 to 220 °C.
